Tests used:
Type in all cases: in vivo
[1] = system: Digitaria sanguinalis (L.) Scop. (DIGSA); experiment: Postemergence foliar-applied herbicidal mixtures, weed control in direct seeded rice (greenhouse)
Excerpt: (§1) Seeds or nutlets of the desired test plant species were planted in a soil matrix prepared by mixing a loam or sandy loam soil (e.g., 28.6 percent silt, 18.8 percent clay, and 52.6 percent sand, with a pH of about 5.8 and an organic matter content of about 1.8 percent) and calcareous grit in an 80 to 20 ratio. The soil matrix was contained in plastic pots with a volume of 1 quart and a surface area of 83.6 square centimeters (cm^2). When required to ensure good germination and healthy plants, a fungicide treatment and/or other chemical or physical treatment was applied. The plants were grown for 8-22 days in a greenhouse with an approximate 14 h photoperiod which was maintained at about 29° C. during the day and 26° C. during the night. Nutrients (Peters Excel® 15-5-15 5-Ca 2-Mg and iron chelate) were applied in the irrigation solution as needed and water was added on a regular basis. Supplemental lighting was provided with overhead metal halide 1000-Watt lamps as necessary. The plants were employed for testing when they reached the first through fourth true leaf stage.
(§2) Treatments consisted of the acid or esters of 4-amino-3-chloro-5-fluoro-6-(4-chloro-2-fluoro-3-methoxy-phenyl) pyridine-2-carboxylic acid (Compound A), each formulated as an SC (suspension concentrate), and various herbicidal components alone and in combination. Forms of compound A were applied on an acid equivalent basis.
(§3) Other herbicidal components were applied on an active ingredient basis and included cellulose biosynthesis-inhibiting (CBI) herbicides isoxaben formulated as Gallery® 75DF and indaziflam formulated as Specticle® 20WSP.
(§4) Treatment requirements were calculated based upon the rates being tested, the concentration of active ingredient or acid equivalent in the formulation, and a 12 mL application volume at a rate of 187 L/ha.
(§5) For treatments comprised of formulated compounds, measured amounts of compounds were placed individually in 25 mL glass vials and diluted in a volume of 1.25% (v/v) Agri-Dex® crop oil concentrated to obtain 12× stock solutions. […] Application solutions were prepared by adding an appropriate amount of each stock solution (e.g., 1 mL) and diluted to the appropriate final concentrations with the addition of 10 mL of an aqueous mixture of 1.25% (v/v) crop oil concentrate so that the final spray solutions contained 1.25+/−0.05% (v/v) crop oil concentrate.
(§6) All stock solutions and applications solutions were visually inspected for compound compatibility prior to application. Spray solutions were applied to the plant material with an overhead Mandel track sprayer equipped with a 8002E nozzles calibrated to deliver 187 L/ha over an application area of 0.503 m^2 at a spray height of 18 to 20 inches (46 to 50 cm) above average plant canopy height. Control plants were sprayed in the same manner with the solvent blank.
(§7) The treated plants and control plants were placed in a greenhouse as described above and watered by sub-irrigation to prevent wash-off of the test compounds. After approximately 3 weeks, the condition of the test plants as compared with that of the untreated plants was determined visually and scored on a scale of 0 to 100 percent where 0 corresponds to no injury or growth inhibition and 100 corresponds to complete kill.
(§8) Colby's equation was used to determine the herbicidal effects expected from the mixtures (Colby, S. R. 1967. Calculation of the synergistic and antagonistic response of herbicide combinations. Weeds 15:20-22).
(§9) The following equation was used to calculate the expected activity of mixtures containing two active ingredients, A and B: Expected=A+B−(A×B/100)
(§10) A=observed efficacy of active ingredient A at the same concentration as used in the mixture.
(§11) B=observed efficacy of active ingredient B at the same concentration as used in the mixture.

[2] = system: Brachiaria platyphylla (Griseb.) Nash or Urochloa platyphylla (Nash) R.D. Webster (BRAPP); experiment: as above
Excerpt: as §1, §2, §3, §4, §5, §6, §7, §8, §9, §10, §11

[3] = system: Leptochloa chinensis (L.) Nees (LEFCH); experiment: as above
Excerpt: as §1, §2, §3, §4, §5, §6, §7, §8, §9, §10, §11

[4] = system: Xanthium strumarium L. (XANST); experiment: Pre-emergence soil-applied herbicidal mixtures for weed control (greenhouse)
Excerpt: (§12) Seeds or nutlets of the desired test plant species were planted in a soil matrix prepared by mixing a loam soil (e.g., 32 percent silt, 23 percent clay, and 45 percent sand, with a pH of about 6.5 and an organic matter content of about 1.9 percent) and calcareous grit in an 80 to 20 ratio. The soil matrix was contained in plastic pots with a volume of 1 quart and a surface area of 83.6 square centimeters (cm^2).
(§13) Treatments consisted of the benzyl ester of 4-amino-3-chloro-5-fluoro-6-(4-chloro-2-fluoro-3-methoxy-phenyl)pyridine-2-carboxylic acid (compound A) formulated as an SC (suspension concentrate) and various herbicidal components alone and in combination. Forms of compound A were applied on an acid equivalent basis.
(§14) Other herbicidal components were applied on an acid equivalent or active ingredient basis and included the cellulose biosynthesis inhibiting herbicides, isoxaben formulated as Gallery® 75DF and indaziflam formulated as Specticle® 20WSP.
as §4
as §5, with “oil concentrate (COC)” for “oil concentrated”, “(v/v) COC” for “(v/v) crop oil concentrate”, “contained 1.25%” for “contained 1.25+/−0.05%”, “(v/v) COC.” for “(v/v) crop oil concentrate.”
as §6, with “soil” for “plant material”, “18” for “18 to 20”, “(46” for “(46 to 50”, “pot” for “plant canopy”, “pots” for “plants”
(§15) The treated and control pots were placed in a greenhouse and top watered as needed. When required to ensure good germination and healthy plants, a fungicide treatment and/or other chemical or physical treatment was applied. The pots were maintained in a greenhouse with an approximate 14 hr. photoperiod which was maintained at about 29° C. during the day and 26° C. during the night. Nutrients (Peters® Excel 15-5-15 5-Ca 2-Mg) were applied in the irrigation solution as needed and water was added on a regular basis. Supplemental lighting was provided with overhead metal halide 1000-Watt lamps as necessary. After approximately 4 weeks, the condition of the test plants as compared with that of the untreated plants was determined visually and scored on a scale of 0 to 100 percent where 0 corresponds to no injury or growth inhibition and 100 corresponds to complete kill.
as §8, §9, §10, §11

[5] = system: Ipomoea hederacea (L.) Jacq. (IPOHE); experiment: as above
Excerpt: as §12, §13, §14, §4
as §5, with “oil concentrate (COC)” for “oil concentrated”, “(v/v) COC” for “(v/v) crop oil concentrate”, “contained 1.25%” for “contained 1.25+/−0.05%”, “(v/v) COC.” for “(v/v) crop oil concentrate.”
as §6, with “soil” for “plant material”, “18” for “18 to 20”, “(46” for “(46 to 50”, “pot” for “plant canopy”, “pots” for “plants”
as §15, §8, §9, §10, §11

[6] = system: Setaria faberi Herrm. (SETFA); experiment: as above; conditions: Indaziflam 95 g ai/ha alone
Excerpt: as §12, §13, §14, §4
as §5, with “oil concentrate (COC)” for “oil concentrated”, “(v/v) COC” for “(v/v) crop oil concentrate”, “contained 1.25%” for “contained 1.25+/−0.05%”, “(v/v) COC.” for “(v/v) crop oil concentrate.”
as §6, with “soil” for “plant material”, “18” for “18 to 20”, “(46” for “(46 to 50”, “pot” for “plant canopy”, “pots” for “plants”
as §15, §8, §9, §10, §11

[7] = Compound A Acid 5.3 g ae/ha alone
[8] = Compound A Acid 8.75 g ae/ha alone
[9] = Compound A Acid 10.6 g ae/ha alone
[10] = Compound A Acid 4.38 g ae/ha alone

| Structure (SMILES) | Visual Weed Control (%) - 21 DAA Obs [1, 7] [%] | Visual Weed Control (%) - 20 DAA Obs [1, 8] [%] | Visual Weed Control (%) - 21 DAA Obs [1, 9] [%] | Visual Weed Control (%) - 20 DAA Obs ([1]; Compound A Acid 17.5 g ae/ha alone) [%] | Visual Weed Control (%) - 21 DAA Obs ([1]; Compound A Acid 21.2 g ae/ha alone) [%] | Visual Weed Control (%) - 20 DAA Obs [2, 10] [%] | Visual Weed Control (%) - 21 DAA Obs [2, 7] [%] | Visual Weed Control (%) - 20 DAA Obs [2, 8] [%] | Visual Weed Control (%) - 21 DAA Obs [2, 9] [%] | Visual Weed Control (%) - 20 DAA Obs [3, 10] [%] | Visual Weed Control (%) - 21 DAA Obs ([1]; Indaziflam 21 g ai/ha alone) [%] | Visual Weed Control (%) - 21 DAA Obs ([1]; Indaziflam 42 g ai/ha alone) [%] | Visual Weed Control (%) - 21 DAA Obs ([2]; Indaziflam 21 g ai/ha alone) [%] | Visual Weed Control (%) - 21 DAA Obs ([2]; Indaziflam 42 g ai/ha alone) [%] | Visual Weed Control (%) - 21 DAA Obs ([3]; Indaziflam 42 g ai/ha alone) [%] | Visual Weed Control (%) - 28 DAA XANST Obs ([4]; Indaziflam 17.5 g ai/ha alone) [%] | Visual Weed Control (%) - 28 DAA XANST Obs ([4]; Indaziflam 70 g ai/ha alone) [%] | Visual Weed Control (%) - 28 DAA IPOHE Obs ([5]; Indaziflam 17.5 g ai/ha alone) [%] | Visual Weed Control (%) - 28 DAA IPOHE Obs ([5]; Indaziflam 70 g ai/ha alone) [%] | Visual Weed Control (%) - 27 DAA SETFA Obs [6] [%] |
| --- | --- | --- | --- | --- | --- | --- | --- | --- | --- | --- | --- | --- | --- | --- | --- | --- | --- | --- | --- | --- |
| COc1c(Cl)ccc(-c2nc(C(=O)O)c(Cl)c(N)c2F)c1F [Compound A Acid, 4-amino-3-chloro-6-(4-chloro-2-fluoro-3-methoxyphenyl)-5-fluoropyridine-2-carboxylic acid] | 20 | 45 | 30 | 50 | 35 | 75 | 60 | 80 | 85 | 15 |  |  |  |  |  |  |  |  |  |  |
| Cc1ccc2c(c1)[C@H](Nc1nc(N)nc(C(C)F)n1)[C@@H](C)C2 (stereo partly drawn) [Indaziflam, N-[(1R,2S)-2,3-dihydro-2,6-dimethyl-1H-inden-1-yl]-6-(1-fluoroethyl)-1,3,5-triazine-2,4-diamine, reference compound] |  |  |  |  |  |  |  |  |  |  | 50 | 45 | 0 | 15 | 70 | 25 | 45 | 40 | 40 | 70 |

From patent publication US8901035B2, “Herbicidal compositions comprising 4-amino-3-chloro-5-fluoro-6-(4-chloro-2-fluoro-3-methoxyphenyl) pyridine-2-carboxylic acid or a derivative thereof and cellulose biosynthesis inhibitor herbicides” (Dow AgroSciences LLC, priority 2012, dated 2014)
